Our source for the Ki values is BindingDB's records for PubMed 7908054 (University of Nebraska, 1994).

Assay [1] addresses T1, Alpha-2A adrenergic receptor (Bos taurus, UniProt Q28838).
T1 sequence (Q28838 whole entry): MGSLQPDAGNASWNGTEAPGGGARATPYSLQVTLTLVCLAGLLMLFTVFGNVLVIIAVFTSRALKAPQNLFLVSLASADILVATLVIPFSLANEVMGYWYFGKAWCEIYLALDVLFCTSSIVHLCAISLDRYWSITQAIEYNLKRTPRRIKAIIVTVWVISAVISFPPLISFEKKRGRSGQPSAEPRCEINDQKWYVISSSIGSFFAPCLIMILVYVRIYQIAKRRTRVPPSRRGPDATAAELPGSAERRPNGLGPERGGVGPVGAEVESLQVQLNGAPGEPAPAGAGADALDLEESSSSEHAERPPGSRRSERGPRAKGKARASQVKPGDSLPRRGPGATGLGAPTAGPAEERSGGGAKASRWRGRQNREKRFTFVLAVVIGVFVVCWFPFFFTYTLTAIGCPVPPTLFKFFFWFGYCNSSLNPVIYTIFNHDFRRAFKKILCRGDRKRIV

Assay [2] deals with T2, Alpha-2B adrenergic receptor (Didelphis virginiana, UniProt O77715).
T2 sequence (O77715 whole entry): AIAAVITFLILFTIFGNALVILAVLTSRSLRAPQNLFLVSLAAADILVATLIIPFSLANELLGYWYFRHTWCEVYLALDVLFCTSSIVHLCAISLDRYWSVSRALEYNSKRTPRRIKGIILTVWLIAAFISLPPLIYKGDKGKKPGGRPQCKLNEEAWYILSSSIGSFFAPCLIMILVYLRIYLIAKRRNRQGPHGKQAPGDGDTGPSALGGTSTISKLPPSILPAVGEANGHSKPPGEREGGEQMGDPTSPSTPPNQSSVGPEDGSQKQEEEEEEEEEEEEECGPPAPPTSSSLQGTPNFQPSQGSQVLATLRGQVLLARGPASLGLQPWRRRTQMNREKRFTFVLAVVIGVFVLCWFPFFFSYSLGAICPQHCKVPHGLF

Assay [3] deals with T3, Alpha-2A adrenergic receptor (Homo sapiens, UniProt P08913).
T3 sequence (P08913 whole entry): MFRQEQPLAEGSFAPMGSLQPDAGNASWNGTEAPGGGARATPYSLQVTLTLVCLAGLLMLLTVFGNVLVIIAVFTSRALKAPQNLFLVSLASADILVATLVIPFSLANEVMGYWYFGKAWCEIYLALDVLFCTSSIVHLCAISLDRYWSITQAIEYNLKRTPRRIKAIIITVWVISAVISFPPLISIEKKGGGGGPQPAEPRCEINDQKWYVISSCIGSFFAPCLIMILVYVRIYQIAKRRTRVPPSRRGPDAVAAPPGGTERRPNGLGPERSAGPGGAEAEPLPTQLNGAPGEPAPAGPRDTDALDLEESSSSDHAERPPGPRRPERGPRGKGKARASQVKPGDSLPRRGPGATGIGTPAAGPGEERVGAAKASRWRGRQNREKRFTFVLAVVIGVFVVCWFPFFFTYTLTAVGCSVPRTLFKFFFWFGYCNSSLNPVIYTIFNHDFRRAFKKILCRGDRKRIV

In assay [4] the target is T4, Alpha-2C adrenergic receptor (Rattus norvegicus, UniProt P22086).
T4 sequence (P22086 whole entry): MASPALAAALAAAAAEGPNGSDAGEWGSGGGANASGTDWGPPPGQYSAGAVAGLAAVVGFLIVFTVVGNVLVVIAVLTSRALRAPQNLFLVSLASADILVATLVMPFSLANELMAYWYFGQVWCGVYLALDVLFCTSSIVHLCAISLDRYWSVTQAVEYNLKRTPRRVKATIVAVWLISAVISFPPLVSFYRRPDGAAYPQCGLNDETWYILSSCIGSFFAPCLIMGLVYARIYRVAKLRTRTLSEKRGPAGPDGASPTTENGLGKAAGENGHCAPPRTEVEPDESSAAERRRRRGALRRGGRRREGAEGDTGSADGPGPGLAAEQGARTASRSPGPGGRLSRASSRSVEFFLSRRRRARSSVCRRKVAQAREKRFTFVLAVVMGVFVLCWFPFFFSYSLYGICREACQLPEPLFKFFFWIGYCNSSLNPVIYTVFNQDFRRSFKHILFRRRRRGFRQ

Values joined by “and” are separate entries in the source; they are usually repeats but may differ in a detail not shown here. Identical values can stand only once.

A word on the Ki: it is a measure of affinity in units of concentration, obtained from inhibition or displacement. Read a low Ki as tighter binding. As to `Cc1cc(C(C)(C)C)c(O)c(C)c1CC1=NCCN1` [SMR000059324], the Ki in assay [1] is 38 nM and 33.1 nM; in assay [2] it was 15.1 nM.

As for `CN1C[C@H](Cn2ccnc2-c2ccccc2)C[C@@H]2c3cccc4[nH]c(Br)c(c34)C[C@H]21` [BAM-1303], the Ki in assay [3] was 0.93 nM; in assay [1], 53.7 nM and 200 nM; in assay [4], 6.91 nM and 8.7 nM; in assay [2] it was 0.38 nM and 0.47 nM.

As to `NCC(O)c1ccc(O)c(O)c1` (stereo not drawn) [Noradrenaline,(+)], the Ki was 933 nM and 1050 nM in assay [1]; 28.2 nM in assay [2].

Turning to `COc1cc2nc(N3CCN(C(=O)c4ccco4)CC3)nc(N)c2cc1OC` [[3H]-Minipress], the Ki in assay [1] is 692 nM and 1320 nM; in assay [2] it was 132 nM and 117 nM.

On to `CC(C)=CCOc1ccc(Cl)c2c1CCN(C)CC2` [SK&F-104078], for which the Ki is 39.8 nM in assay [3]; 81.3 nM and 145 nM in assay [1]; 49 nM and 69.2 nM in assay [4]; 42.6 nM and 55 nM in assay [2].

Regarding `O=C1NCN(c2ccccc2)C12CCN(CC1COc3ccccc3O1)CC2` (stereo unspecified) [8-(2,3-Dihydro-benzo[1,4]dioxin-2-ylmethyl)-1-phenyl-1,3,8-triaza-spiro[4.5]decan-4-one], the Ki in assay [3] was 9.54 nM; in assay [1] it was 9.33 nM and 12 nM; in assay [4] it was 0.28 nM and 0.7 nM; in assay [2] it was 0.26 nM and 0.61 nM.

`COc1cccc(OC)c1OCCNCC1Oc2ccccc2OC1c1ccccc1` (stereo unspecified) [NSC_185453]: the Ki in assay [3] was 2.18 nM; in assay [1], 7.58 nM and 13.5 nM; in assay [4], 7.76 nM and 18.6 nM; in assay [2] it was 0.63 nM and 1 nM.

Consider `COc1ccccc1N1CCN(CCC2C(=O)c3ccccc3C(C)(C)C2=O)CC1` (stereo unspecified) [NSC_122211], for which the Ki is 219 nM in assay [3]; 148 nM and 324 nM in assay [1]; 1.58 nM and 2.29 nM in assay [4]; 12.9 nM and 46.8 nM in assay [2].
